Reference: ChEMBL document CHEMBL1156213, “Imidazo[2,1-b]thiazoles: multitargeted inhibitors of both the insulin-like growth factor receptor and members of the epidermal growth factor family of receptor tyrosine kinases” (Bioorg Med Chem Lett, 2010)

What was measured:
[1] = molecular target: Epidermal growth factor receptor (Homo sapiens, UniProt P00533, L858R)
[2] = molecular target: T1, Insulin-like growth factor 1 receptor (Homo sapiens, UniProt P08069); assay: Inhibition of human recombinant IGF1R expressed in Sf21 cells by time resolved fluorescence assay
[3] = molecular target: T2, Receptor tyrosine-protein kinase erbB-2 (Homo sapiens, UniProt P04626); assay: Inhibition of ErbB2 by time resolved fluorescence assay
[4] = molecular target: T1, Insulin-like growth factor 1 receptor; assay: Inhibition of IGF1R intracellular phosphorylation in human A431 cells by ELISA; format: cell-based, A-431
[5] = molecular target: Epidermal growth factor receptor (Homo sapiens, UniProt P00533)
Description: Inhibition of EGFR intracellular phosphorylation in human A431 cells by ELISA

[6] = molecular target: T2, Receptor tyrosine-protein kinase erbB-2; assay: Inhibition of ErbB2 intracellular phosphorylation in human N87 cells by ELISA
[7] = Inhibition of MAPKAPK
[8] = molecular target: T3, Serine/threonine-protein kinase Sgk1 (Homo sapiens, UniProt O00141); assay: Inhibition of SGK
T3 sequence (O00141 whole entry): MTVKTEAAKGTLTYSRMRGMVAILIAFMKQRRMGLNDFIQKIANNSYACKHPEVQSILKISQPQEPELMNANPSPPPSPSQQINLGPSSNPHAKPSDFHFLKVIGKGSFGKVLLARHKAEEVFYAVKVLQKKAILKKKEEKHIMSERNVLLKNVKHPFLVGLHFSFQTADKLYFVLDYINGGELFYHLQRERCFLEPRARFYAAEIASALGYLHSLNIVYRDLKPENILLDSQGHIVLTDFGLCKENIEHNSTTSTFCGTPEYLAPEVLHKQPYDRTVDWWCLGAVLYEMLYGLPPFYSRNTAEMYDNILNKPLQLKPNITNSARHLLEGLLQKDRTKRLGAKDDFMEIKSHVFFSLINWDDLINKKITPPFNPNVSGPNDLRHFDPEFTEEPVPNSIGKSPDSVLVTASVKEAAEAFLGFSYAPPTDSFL

[9] = Inhibition of FGFR
[10] = molecular target: Protein kinase C eta type (Homo sapiens, UniProt P24723); assay: Inhibition of PKCeta
[11] = Inhibition of PKA
[12] = Inhibition of CK2
[13] = Inhibition of P70S6K

Epidermal growth factor receptor (Homo sapiens, UniProt P00533, L858R), sequence (P00533 25-1210 L858R limits assumed): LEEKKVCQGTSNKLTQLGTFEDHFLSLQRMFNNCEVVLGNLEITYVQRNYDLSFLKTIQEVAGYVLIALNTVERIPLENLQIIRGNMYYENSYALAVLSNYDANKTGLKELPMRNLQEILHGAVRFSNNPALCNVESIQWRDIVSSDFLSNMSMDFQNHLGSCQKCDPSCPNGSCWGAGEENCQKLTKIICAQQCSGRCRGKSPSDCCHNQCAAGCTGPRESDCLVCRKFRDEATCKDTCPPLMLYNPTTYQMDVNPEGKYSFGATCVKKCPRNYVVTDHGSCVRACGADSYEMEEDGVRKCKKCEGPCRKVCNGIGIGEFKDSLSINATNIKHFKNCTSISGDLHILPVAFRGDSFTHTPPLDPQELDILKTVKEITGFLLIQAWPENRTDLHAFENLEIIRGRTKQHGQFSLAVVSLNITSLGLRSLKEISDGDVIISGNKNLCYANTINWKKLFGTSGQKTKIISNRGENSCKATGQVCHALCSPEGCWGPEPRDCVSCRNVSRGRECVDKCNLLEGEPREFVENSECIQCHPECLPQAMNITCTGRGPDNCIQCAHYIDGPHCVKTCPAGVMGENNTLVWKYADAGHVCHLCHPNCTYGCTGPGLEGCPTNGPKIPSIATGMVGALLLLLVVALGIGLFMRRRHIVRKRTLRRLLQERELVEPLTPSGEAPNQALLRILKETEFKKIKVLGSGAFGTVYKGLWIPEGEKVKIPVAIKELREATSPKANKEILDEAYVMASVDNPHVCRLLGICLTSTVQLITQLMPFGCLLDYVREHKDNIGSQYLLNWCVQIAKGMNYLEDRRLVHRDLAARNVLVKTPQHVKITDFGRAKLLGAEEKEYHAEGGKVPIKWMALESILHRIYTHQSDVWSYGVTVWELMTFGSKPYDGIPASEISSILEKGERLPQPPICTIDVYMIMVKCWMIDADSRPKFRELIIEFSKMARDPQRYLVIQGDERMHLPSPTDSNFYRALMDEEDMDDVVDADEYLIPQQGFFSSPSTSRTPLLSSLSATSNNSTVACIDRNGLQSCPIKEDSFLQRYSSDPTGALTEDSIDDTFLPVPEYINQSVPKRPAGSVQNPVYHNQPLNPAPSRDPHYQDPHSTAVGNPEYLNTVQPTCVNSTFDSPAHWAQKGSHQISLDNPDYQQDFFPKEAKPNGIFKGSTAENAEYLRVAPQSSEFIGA
T2 sequence (P04626 whole entry): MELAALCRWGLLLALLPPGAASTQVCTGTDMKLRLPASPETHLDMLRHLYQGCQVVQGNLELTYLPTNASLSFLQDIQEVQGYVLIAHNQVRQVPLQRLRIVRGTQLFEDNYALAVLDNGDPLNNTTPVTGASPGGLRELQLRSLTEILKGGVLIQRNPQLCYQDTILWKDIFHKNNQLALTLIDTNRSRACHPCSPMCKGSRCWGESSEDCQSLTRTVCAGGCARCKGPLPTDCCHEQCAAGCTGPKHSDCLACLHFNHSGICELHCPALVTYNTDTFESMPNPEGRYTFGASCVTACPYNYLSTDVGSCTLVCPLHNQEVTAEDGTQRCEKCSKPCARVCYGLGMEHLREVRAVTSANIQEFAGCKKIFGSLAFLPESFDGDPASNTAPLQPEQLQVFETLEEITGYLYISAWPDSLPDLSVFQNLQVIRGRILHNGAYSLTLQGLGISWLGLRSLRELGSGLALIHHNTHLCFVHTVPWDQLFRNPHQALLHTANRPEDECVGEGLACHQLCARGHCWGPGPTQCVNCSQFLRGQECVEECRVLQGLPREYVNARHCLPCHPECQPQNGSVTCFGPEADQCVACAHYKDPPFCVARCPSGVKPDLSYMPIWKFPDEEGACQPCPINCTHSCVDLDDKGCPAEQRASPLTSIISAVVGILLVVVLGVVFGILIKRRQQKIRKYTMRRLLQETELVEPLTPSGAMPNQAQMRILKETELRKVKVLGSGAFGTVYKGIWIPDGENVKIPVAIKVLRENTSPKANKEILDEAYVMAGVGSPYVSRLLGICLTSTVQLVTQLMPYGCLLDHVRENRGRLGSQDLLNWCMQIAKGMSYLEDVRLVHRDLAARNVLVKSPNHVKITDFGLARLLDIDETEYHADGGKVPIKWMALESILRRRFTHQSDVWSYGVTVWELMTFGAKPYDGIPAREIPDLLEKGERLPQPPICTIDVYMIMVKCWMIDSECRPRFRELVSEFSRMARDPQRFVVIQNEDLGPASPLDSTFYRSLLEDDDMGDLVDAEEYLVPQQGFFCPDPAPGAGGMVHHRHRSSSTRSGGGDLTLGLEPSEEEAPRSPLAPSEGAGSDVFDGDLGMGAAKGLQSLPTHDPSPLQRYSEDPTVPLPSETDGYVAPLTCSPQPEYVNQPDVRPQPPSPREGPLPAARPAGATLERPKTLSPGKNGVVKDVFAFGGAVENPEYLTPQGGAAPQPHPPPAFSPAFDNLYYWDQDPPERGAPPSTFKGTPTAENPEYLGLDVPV
T1 sequence (P08069 31-736 limits assumed): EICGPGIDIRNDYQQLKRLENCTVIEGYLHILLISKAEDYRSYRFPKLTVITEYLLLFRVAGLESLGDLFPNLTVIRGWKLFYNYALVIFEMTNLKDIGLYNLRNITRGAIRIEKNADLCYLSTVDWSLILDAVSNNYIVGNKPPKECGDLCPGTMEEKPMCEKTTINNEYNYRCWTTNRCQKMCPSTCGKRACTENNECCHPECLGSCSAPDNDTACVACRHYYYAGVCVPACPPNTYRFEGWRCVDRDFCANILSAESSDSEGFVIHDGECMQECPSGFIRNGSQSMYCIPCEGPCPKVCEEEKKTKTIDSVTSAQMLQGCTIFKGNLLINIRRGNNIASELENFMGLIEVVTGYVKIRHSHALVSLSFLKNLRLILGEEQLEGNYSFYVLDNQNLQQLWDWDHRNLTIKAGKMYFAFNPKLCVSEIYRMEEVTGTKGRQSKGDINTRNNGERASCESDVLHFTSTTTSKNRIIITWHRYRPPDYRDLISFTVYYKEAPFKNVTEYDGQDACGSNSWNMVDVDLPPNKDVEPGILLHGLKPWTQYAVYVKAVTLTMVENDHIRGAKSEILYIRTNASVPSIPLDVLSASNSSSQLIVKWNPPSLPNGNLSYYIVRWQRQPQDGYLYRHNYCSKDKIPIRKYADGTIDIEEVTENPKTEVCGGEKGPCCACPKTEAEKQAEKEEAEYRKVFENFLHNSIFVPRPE
T1 sequence (P08069 741-1367 limits assumed): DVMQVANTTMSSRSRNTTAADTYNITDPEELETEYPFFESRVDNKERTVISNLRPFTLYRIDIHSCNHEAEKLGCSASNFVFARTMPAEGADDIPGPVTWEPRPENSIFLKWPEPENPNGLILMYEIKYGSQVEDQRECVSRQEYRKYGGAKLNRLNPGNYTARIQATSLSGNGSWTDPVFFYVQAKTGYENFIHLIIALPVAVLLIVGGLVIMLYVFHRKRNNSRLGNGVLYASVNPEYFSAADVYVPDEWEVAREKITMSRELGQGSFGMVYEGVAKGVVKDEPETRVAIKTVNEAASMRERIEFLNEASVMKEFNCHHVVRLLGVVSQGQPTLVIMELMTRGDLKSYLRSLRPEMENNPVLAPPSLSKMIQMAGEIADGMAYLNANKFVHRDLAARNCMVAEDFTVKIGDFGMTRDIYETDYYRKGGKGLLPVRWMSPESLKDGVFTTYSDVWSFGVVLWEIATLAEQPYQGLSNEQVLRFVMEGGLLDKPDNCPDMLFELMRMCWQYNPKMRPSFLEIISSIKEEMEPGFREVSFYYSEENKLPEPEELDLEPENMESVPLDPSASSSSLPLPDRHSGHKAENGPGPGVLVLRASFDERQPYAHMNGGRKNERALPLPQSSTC
Epidermal growth factor receptor (Homo sapiens, UniProt P00533), sequence (P00533 whole entry): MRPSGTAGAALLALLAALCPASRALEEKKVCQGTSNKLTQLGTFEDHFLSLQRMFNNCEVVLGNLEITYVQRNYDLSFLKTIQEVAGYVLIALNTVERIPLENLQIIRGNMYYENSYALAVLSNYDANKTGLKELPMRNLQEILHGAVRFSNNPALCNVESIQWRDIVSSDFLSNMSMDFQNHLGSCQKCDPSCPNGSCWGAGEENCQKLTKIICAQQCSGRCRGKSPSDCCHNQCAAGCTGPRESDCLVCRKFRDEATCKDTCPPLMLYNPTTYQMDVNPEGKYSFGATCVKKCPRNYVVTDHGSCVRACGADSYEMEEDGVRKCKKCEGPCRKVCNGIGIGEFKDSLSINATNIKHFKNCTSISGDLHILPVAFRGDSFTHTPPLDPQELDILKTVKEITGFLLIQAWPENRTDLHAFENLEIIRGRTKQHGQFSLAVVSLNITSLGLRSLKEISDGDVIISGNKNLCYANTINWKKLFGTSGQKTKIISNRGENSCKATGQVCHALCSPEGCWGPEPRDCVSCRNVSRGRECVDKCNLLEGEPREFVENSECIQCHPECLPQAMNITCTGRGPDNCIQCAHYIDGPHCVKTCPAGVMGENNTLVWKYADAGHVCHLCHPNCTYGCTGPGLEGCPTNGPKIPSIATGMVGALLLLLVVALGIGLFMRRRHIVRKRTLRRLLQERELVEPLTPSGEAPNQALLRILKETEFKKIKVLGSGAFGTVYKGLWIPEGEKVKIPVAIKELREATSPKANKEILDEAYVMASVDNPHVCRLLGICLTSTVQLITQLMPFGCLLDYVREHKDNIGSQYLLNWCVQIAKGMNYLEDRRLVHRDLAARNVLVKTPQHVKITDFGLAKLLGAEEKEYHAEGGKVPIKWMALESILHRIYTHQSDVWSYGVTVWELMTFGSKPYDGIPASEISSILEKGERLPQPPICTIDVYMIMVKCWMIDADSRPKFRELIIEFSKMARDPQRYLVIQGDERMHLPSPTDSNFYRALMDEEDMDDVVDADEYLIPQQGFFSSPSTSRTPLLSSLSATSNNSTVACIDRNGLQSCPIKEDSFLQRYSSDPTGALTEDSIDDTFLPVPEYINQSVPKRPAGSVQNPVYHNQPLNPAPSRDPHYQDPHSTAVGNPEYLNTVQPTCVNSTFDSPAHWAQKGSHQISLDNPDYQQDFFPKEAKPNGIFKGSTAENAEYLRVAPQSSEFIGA

| Structure (SMILES) | IC50 [1] [nM] | IC50 [2] [nM] | IC50 [3] [nM] | also measured |
| --- | --- | --- | --- | --- |
| CN1CCc2cc(Nc3nccc(-c4c(-c5cccc(NC(=O)Cc6ccccc6)c5)nc5sccn45)n3)ccc2C1 | 57 | 81 | 160 |  |
| O=C(Nc1ccccc1)Nc1cccc(-c2nc3sccn3c2-c2ccnc(Nc3ccc(N4CCOCC4)cc3)n2)c1 | 100 | 590 | 170 |  |
| CCN1CCN(c2ccc(Nc3nccc(-c4c(-c5cccc(NC(=O)c6c(F)cccc6F)c5)nc5sccn45)n3)cc2)CC1 | 0.96 | 230 | 14 | IC50 [4]: 200 nM; IC50 [5]: 50 nM; IC50 [6]: 69 nM |
| O=C(Nc1cccc(-c2nc3sccn3c2-c2ccnc(Nc3ccccc3)n2)c1)c1ccccc1 | 55 | > 12500 | 6.3 |  |
| O=[N+]([O-])c1cccc(-c2nc3sccn3c2-c2ccnc(Nc3ccccc3)n2)c1 |  | > 12500 | 6000 |  |
| CN(C)CCc1ccc(Nc2nccc(-c3c(-c4cccc(NC(=O)c5c(F)cccc5F)c4)nc4sccn34)n2)cc1 | 0.78 | 210 | 4.3 | IC50 [4]: 330 nM; IC50 [5]: 220 nM; IC50 [6]: 27 nM |
| O=C(Nc1cccc(-c2nc3sccn3c2-c2ccnc(Nc3ccc(N4CCOCC4)cc3)n2)c1)c1c(F)cccc1F | 1.9 | 1300 | 86 |  |
| O=C(Nc1cccc(-c2nc3sccn3c2-c2ccnc(Nc3cccc(N4CCOCC4)c3)n2)c1)c1c(F)cccc1F | 6.2 | 3800 | 86 |  |
| O=C(Nc1cccc(-c2nc3sccn3c2-c2ccnc(Nc3ccc(N4CCOCC4)cc3)n2)c1)Oc1ccccc1 | 190 | 450 | 170 |  |
| O=C(Nc1cccc(-c2nc3sccn3c2-c2ccnc(Nc3ccc(N4CCOCC4)cc3)n2)c1)c1ccccc1 | 7.9 | 1500 | 4.8 |  |
| CCN1CCN(c2ccc(Nc3nccc(-c4c(-c5cccc(NC(=O)Cc6ccccc6)c5)nc5sccn45)n3)cc2)CC1 |  | 52 | 170 | IC50 [4]: 41 nM; IC50 [6]: 310 nM |
| O=C(Cc1ccccc1)Nc1cccc(-c2nc3sccn3c2-c2ccnc(Nc3cccc(N4CCOCC4)c3)n2)c1 |  |  |  | IC50 [7]: > 1000 nM; IC50 [8]: > 1000 nM; IC50 [9]: 890 nM; IC50 [10]: > 1000 nM; IC50 [11]: > 1000 nM; IC50 [12]: > 1000 nM; IC50 [13]: > 1000 nM |
| O=C(CC1CCCCC1)Nc1cccc(-c2nc3sccn3c2-c2ccnc(Nc3ccc(N4CCOCC4)cc3)n2)c1 | 870 | 1100 | 1400 |  |
| CN(C)CCc1cccc(Nc2nccc(-c3c(-c4cccc(NC(=O)Cc5ccccc5)c4)nc4sccn34)n2)c1 | 24 |  | 150 |  |
| O=C(CC1CCCC1)Nc1cccc(-c2nc3sccn3c2-c2ccnc(Nc3ccc(N4CCOCC4)cc3)n2)c1 | 660 | 580 | 1300 |  |
| O=C(Nc1cccc(-c2nc3sccn3c2-c2ccncc2)c1)c1ccccc1Cl | 240 | > 12500 | 240 |  |
| Nc1nc2ccc(-c3c(-c4cccc(NC(=O)c5ccccc5Cl)c4)nc4sccn34)cc2[nH]1 | > 12500 | > 12500 | > 12500 |  |
| O=C(Nc1cccc(-c2nc3sccn3c2-c2ccnc(Nc3ccccc3)n2)c1)c1ccccc1Cl | 83 | > 12500 | 35 |  |
| O=C(Nc1cccc(-c2nc3sccn3c2-c2ccnc(Nc3ccc4c(c3)CCNC4)n2)c1)c1c(F)cccc1F | 2.3 | 100 | 7.2 |  |
| O=C(Cc1ccccc1)Nc1cccc(-c2nc3sccn3c2-c2ccnc(Nc3ccc4c(c3)CCNC4)n2)c1 | 6.4 | 27 | 55 | IC50 [4]: 180 nM; IC50 [5]: 1000 nM; IC50 [6]: 120 nM |
